In patent publication US11407771B2 (priority 2018, dated 2022):

molecular target: T1, MAPK13 (Homo sapiens (Human), UniProt O15264); assay: not given; conditions: read-out: MAPK13 IC50
T1 sequence (O15264 whole entry): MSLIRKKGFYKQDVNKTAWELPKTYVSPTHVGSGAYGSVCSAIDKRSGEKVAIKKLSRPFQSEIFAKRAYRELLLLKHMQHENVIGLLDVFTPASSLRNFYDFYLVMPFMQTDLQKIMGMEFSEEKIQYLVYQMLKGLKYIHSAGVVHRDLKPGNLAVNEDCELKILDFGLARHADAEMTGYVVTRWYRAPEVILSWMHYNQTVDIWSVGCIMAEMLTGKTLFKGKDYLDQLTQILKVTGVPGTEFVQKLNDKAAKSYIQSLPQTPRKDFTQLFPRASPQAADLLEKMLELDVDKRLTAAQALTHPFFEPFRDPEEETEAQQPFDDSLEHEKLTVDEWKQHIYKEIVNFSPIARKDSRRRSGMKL

| Compound | IC50 [nM] |
| --- | --- |
| Cc1ccc(-n2nc(C(C)(C)C)cc2NC(=O)Nc2ncc(CCc3ccnc(NC(=O)C4CC4)c3)s2)cc1 [Compound 331, Cyclopropanecarboxylic acid [4-(2-{2-[3-(5-tert-butyl-2-p-tolyl-2H-pyrazol-3-yl)-ureido]-thiazol-5-yl}ethyl)-pyridin-2-yl]-amide] | 11 |

same assay, conditions: read-out: MAPK13 inhibition

| Compound | IC50 [nM] |
| --- | --- |
| COC(=O)Nc1cc(Oc2ccc(NC(=O)Nc3cc(C4(C)CSC4)nn3-c3ccc(C)cc3)cc2)ccn1 [Compound 262, [4-(4-{3-[5-(3-Methyl-thietan-3-yl)-2-p-tolyl-2H-pyrazol-3-yl]-ureido}-phenoxy)-pyridin-2-yl]-carbamic acid methyl ester] | < 250 |
| CC(C)(C)c1cc(NC(=O)Nc2ccc(Oc3ccncc3)cc2F)n(-c2ccc(F)cc2)n1 [Compound 303, 1-[5-tert-Butyl-2-(4-fluoro-phenyl)-2H-pyrazol-3-yl]-3-[2-fluoro-4-(pyridin-4-yloxy)-phenyl]-urea] | < 250 |
| CC(=O)Nc1cc(Oc2ccc(NC(=O)Nc3cc(C(C)(C)C)nn3C(C)C)c(F)c2)ccn1 [Compound 392, N-(4-{4-[3-(5-tert-Butyl-2-isopropyl-2H-pyrazol-3-yl)-ureido]-3-fluoro-phenoxy}-pyridin-2-yl)-acetamide] | < 250 |
| COC(=O)Nc1cc(CCc2ccc(NC(=O)Nc3cc(C(C)(C)C)nn3-c3ccc(C)cc3)c(F)c2)ccn1 [Compound 315, [4-(2-{4-[3-(5-tert-Butyl-2-p-tolyl-2H-pyrazol-3-yl)-ureido]-3-fluoro-phenyl}-ethyl)-pyridin-2-yl]-carbamic acid methyl ester] | > 1000 |
| CC(C)(C)c1ccc(Cl)c(NC(=O)Nc2ccc(Oc3ccnc(NC(=O)CO)c3)cc2F)c1 [Compound 426, N-(4-{4-[3-(5-tert-Butyl-2-chloro-phenyl)-ureido]-3-fluoro-phenoxy}-pyridin-2-yl)-2-hydroxy-acetamide] | < 250 |
| Cc1ccc(-n2nc(C(C)(C)C)cc2NC(=O)Nc2ncc(CCc3ccnc(NC(=O)C4CCOCC4)c3)s2)cc1 [Compound 288, Tetrahydro-pyran-4-carboxylic acid [4-(2-{2-[3-(5-tert-butyl-2-p-tolyl-2H-1-pyrazol-3-yl)-ureido]-thiazol-5-yl}-ethyl)-pyridin-2-yl]-amide] | < 250 |
| CC(C)n1nc(C(C)(C)C)cc1NC(=O)Nc1ncc(CCc2ccncc2)s1 [Compound 389, 1-(5-tert-Butyl-2-isopropyl-2H-pyrazol-3-yl)-3-[5-(2-pyridin-4-yl-ethyl)-thiazol-2-yl]-urea] | > 1000 |
| CCNC(=O)Nc1cc(CCc2cnc(NC(=O)Nc3cc(C(C)(C)C)nn3-c3ccc(C)cc3)s2)ccn1 [Compound 284, 1-[4-(2-{2-[3-(5-tert-Butyl-2-p-tolyl-2H-pyrazol-3-yl)-ureido]-thiazol-5-yl}-ethyl)-pyridin-2-yl]-3-ethyl-urea] | < 250 |
| CCOC(=O)Nc1cc(CCc2cnc(NC(=O)Nc3cc(C(C)(C)C)nn3C)s2)ccn1 [Compound 335, [4-(2-{2-[3-(5-tert-Butyl-2-methyl-2H-pyrazol-3-yl)-ureido]-thiazol-5-yl}-ethyl)-pyridin-2-yl]-carbamic acid ethyl ester] | < 250 |
| Cc1ccc(-n2nc(C(C)(C)C)cc2NC(=O)Nc2ncc(CCc3ccnc(NC(=O)C4CC4)c3)s2)cc1 [Compound 331, Cyclopropanecarboxylic acid [4-(2-{2-[3-(5-tert-butyl-2-p-tolyl-2H-pyrazol-3-yl)-ureido]-thiazol-5-yl}ethyl)-pyridin-2-yl]-amide] | < 250 |
| CC(=O)Nc1cc(CCc2ccc(NC(=O)Nc3cc(C(C)(C)C)nn3-c3ccc(C)cc3)c(F)c2)ccn1 [Compound 329, N-[4-(2-{4-[3-(5-tert-Butyl-2-p-tolyl-2H-pyrozol-3-yl)-ureido]-3-fluoro-phenyl}-ethyl)-pyridin-2-yl]-acetamide] | < 250 |
| CC(C)(C)c1cc(NC(=O)Nc2ncc(CCc3ccnc(NC(=O)C4CC4)c3)s2)no1 [Compound 369, Cyclopropanecarboxylic acid [4-(2-{2-[3-(5-tert-butyl-isoxazol-3-yl)-ureido]-thiazol-5-yl}-ethyl)-pyridin-2-yl]-amide] | < 250 |
| Cc1ccc(-n2nc(C(C)(C)C)cc2NC(=O)Nc2ncc(CCc3ccnc(NC(=O)N4CCCC4)c3)s2)cc1 [Compound 337, Pyrrolidine-1-carboxylic acid [4-(2-{2-[3-(5-tert-butyl-2-p-tolyl-2H-pyrazol-3-yl)-ureido]-thiazol-5-yl}-ethyl)-pyridin-2-yl]-amide] | < 250 |
| COCCC(=O)Nc1cc(Oc2ccc(NC(=O)Nc3cc(C(C)(C)C)ccc3Cl)c(F)c2)ccn1 [Compound 427, N-(4-{4-[3-(5-tert-Butyl-2-chloro-phenyl)-ureido]-3-fluoro-phenoxy}-pyridin-2-yl)-3-methoxy-propionamide] | < 250 |
| CC(C)(C)c1cc(NC(=O)Nc2ccc(Oc3ccncc3)cc2F)n(-c2cccc(F)c2)n1 [Compound 306, 1-[5-tert-butyl-2-(3-fluorophenyl)pyrazol-3-yl]-3-[2-fluoro-4-(4-pyridyloxy)phenyl]urea] | < 250 |
| CC(C)(C)c1cc(NC(=O)Nc2ncc(CCc3ccnc(NC(=O)C4CC4)c3)s2)n(-c2ccc(Cl)cc2)n1 [Compound 390, N-[4-[2-[2-[[5-tert-butyl-2-(4-chlorophenyl)pyrazol-3-yl]carbamoylamino]thiazol-5-yl]ethyl]-2-pyridyl]cyclopropanecarboxamide] | < 250 |
| CC(=O)Nc1cc(CCc2ccc(NC(=O)Nc3cccc(C(C)(C)C)c3)c(F)c2)ccn1 [Compound 377, N-[4-(2-{4-[3-(3-tert-Butyl-phenyl)-ureido]-3-fluoro-phenyl}-ethyl)-pyridin-2-yl]-acetamide] | > 1000 |
| CC(=O)Nc1cc(CCc2ccc(NC(=O)Nc3cc(C(C)(C)C)on3)c(F)c2)ccn1 [Compound 358, N-[4-(2-{4-[3-(5-tert-Butyl-isoxazol-3-yl)-ureido]-3-fluoro-phenyl}-ethyl)-pyridin-2-yl]-acetamide] | > 1000 |
| CC(=O)Nc1cc(CCc2cnc(NC(=O)Nc3cc(C(C)(C)C)on3)s2)ccn1 [Compound 366, N-[4-(2-{2-[3-(5-tert-Butyl-isoxazol-3-yl)-ureido]-thiazol-5-yl}-ethyl)-pyridin-2-yl]-acetamide] | < 250 |
| CCNC(=O)Nc1cc(CCc2cnc(NC(=O)Nc3cc(C(C)(C)C)nn3C)s2)ccn1 [Compound 352, 1-[4-(2-{2-[3-(5-tert-Butyl-2-methyl-2H-pyrazol-3-yl)-ureido]-thiazol-5-yl}ethyl)-pyridin-2-yl]-3-ethyl-urea] | < 250 |
| CC(=O)Nc1cc(COc2ccc(NC(=O)Nc3cc(C(C)(C)C)nn3-c3ccc(C)cc3)c(F)c2)ccn1 [Compound 402, N-(4-{4-[3-(5-tert-Butyl-2-p-tolyl-2H-pyrazol-3-yl)-ureido]-3-fluoro-phenoxymethyl}-pyridin-2-yl)-acetamide] | < 250 |
| CC(C)(C)c1ccc(Cl)c(NC(=O)Nc2ncc(CCc3ccncc3)s2)c1 [Compound 388, 1-(5-tert-Butyl-2-chloro-phenyl)-3-[5-(2-pyridin-4-yl-thiazol)-thiazol-2-yl]-urea] | > 1000 |
| Cc1ccc(-n2nc(C3(C)CSC3)cc2NC(=O)Nc2ncc(CCc3ccncc3)s2)cc1 [Compound 273, 1-[5-(3-Methyl-thietan-3-yl)-2-p-tolyl-2H-pyrazol-3-yl]-3-[5-(2-pyridin-4-yl-ethyl)-thiazol-2-yl]-urea] | < 250 |
| COCCC(=O)Nc1cc(Oc2ccc(NC(=O)Nc3cc(C4CC4)ccc3F)c(F)c2)ccn1 [Compound 425, N-(4-{4-[3-(5-Cyclopropyl-2-fluoro-phenyl)-ureido]-3-fluoro-phenoxy}-pyridin-2-yl)-3 methoxypropionamide] | < 250 |
| CC(=O)Nc1cc(Oc2ccc(NC(=O)Nc3cc(C4CC4)ccc3Cl)c(F)c2)ccn1 [Compound 423, N-(4-{4-[3-(2-Chloro-5-cyclopropyl-phenyl)-ureido]-3-fluoro-phenoxy}-pyridin-2-yl)-acetamide] | < 250 |
| CC(=O)Nc1cc(CCc2ccc(NC(=O)Nc3cc(C(C)(C)C)nn3C)c(F)c2)ccn1 [Compound 361, N-[4-(2-{4-[3-(5-tert-Butyl-2-methyl-2H-pyrazol-3-yl)-ureido]-3-fluoro-phenyl}-ethyl)-pyridin-2-yl]-acetamide] | > 1000 |
| CC(C)(C)c1cc(NC(=O)Nc2ccc(CCc3ccnc(NC(=O)C4CC4)c3)cc2F)n(CC2CC2)n1 [Compound 372, Cyclopropanecarboxylic acid [4-(2-{4-[3-(5-tert-butyl-2-cyclopropylmethyl-2H-pyrazol-3-yl)-ureido]-3-fluoro-phenyl}-ethyl)-pyridin-2-yl]-amide] | > 1000 |
| CC(C)n1nc(C(C)(C)C)cc1NC(=O)Nc1ccc(CCc2ccnc(NC(=O)C3CC3)c2)cc1F [Compound 375, Cyclopropanecarboxylic acid [4-(2-{4-[3-(5-tert-butyl-2-isopropyl-2H-pyrazol-3-yl)-ureido]-3-fluoro-phenyl}-ethyl)-pyridin-2-yl]-amide] | > 1000 |

molecular target: T1, MAPK13; assay: biochemical; conditions: not given

| Compound | IC50 [nM] |
| --- | --- |
| CC(=O)Nc1cc(COc2ccc(NC(=O)Nc3cc(C(C)(C)C)nn3CC3CC3)c(F)c2)ccn1 [Compound 413, N-(4-{4-[3-(5-tert-Butyl-2-cyclopropylmethyl-2H-pyrazol-3-yl)-ureido]-3-fluoro-phenoxymethyl}-pyridin-2-yl)-acetamide] | 250 to 1000 |
| Cc1ccc(-n2nc(C(C)(C)C)cc2NC(=O)Nc2ncc(CCc3ccncc3)s2)cc1 [Compound 270, 1-(5-tert-Butyl-2-p-tolyl-2H-pyrazol-3-yl)-3-[5-(2-pyridin-4-yl-ethyl)-thiazol-2-yl]-urea] | 250 to 1000 |
| CC(C)(C)c1cc(NC(=O)Nc2ncc(CCc3ccncc3)s2)on1 [Compound 386, 1-(3-tert-Butyl-isoxazol-5-yl)-3-[5-(2-pyridin-4-yl-ethyl)-thiazol-2-yl]-urea] | 250 to 1000 |
| CC(=O)Nc1cc(CCc2ccc(NC(=O)Nc3cc(C(C)(C)C)nn3-c3ccc(F)cc3)c(F)c2)ccn1 [Compound 379, N-{4-[2-(4-{3-[5-tert-Butyl-2-(4-fluoro-phenyl)-2H-pyrazol-3-yl]-ureido}-3-fluoro-phenyl)-ethyl]-pyridin-2-yl}-acetamide] | 250 to 1000 |
| CC(=O)Nc1cc(COc2ccc(NC(=O)Nc3cc([Si](C)(C)C)ccc3F)c(F)c2)ccn1 [Compound 405, N-(4-{3-fluoro-4-[3-(2-fluoro-trimethylsilanyl-phenyl)-ureido]-phenoxymethyl}-pyridin-2-yl)-acetamide] | 250 to 1000 |
